According to PMC12195660, “Preparation and Evaluation of an Oral Administration System of Albendazole-Metal-Organic Framework Based on Dual Response to pH and Enzymes” (Pharmaceuticals, 2025):

Assay: In vivo pharmacokinetic study after intragastric administration in rats
Settings: both sexes, Wistar, rat, po, 25 mg·kg^−1 of ABZ
Description: Eighteen Wistar rats were selected and divided into three groups, with half of them being male and the other half being female. Each group was given a dose of 25 mg·kg^−1 of ABZ by intragastric administration. Blood samples of 200–500 μL were collected from each rat at 0.5, 1, 2, 4, 6, 8, 10, 12, and 24 h after administration and were placed into pre-prepared anticoagulant centrifuge tubes. The samples were centrifuged at 13,000 rpm for 10 min, and the upper plasma was collected and stored at −80 °C in an ultra-low temperature refrigerator.
For sample preparation, plasma was thawed, and 50 μL of plasma was mixed with 150 μL of methanol. The mixture was vortexed for 1 min and then centrifuged at 13,000 rpm for 10 min. The supernatant (135 μL) was collected, followed by the addition of 200 ng·mL^−1 mebendazole as the internal standard. The sample was vortexed for 1 min and then filtered through a microporous membrane. The drug content was quantified using UHPLC-MS/MS (UltiMate 3000 and Q-Exactive Orbitrap MS, Thermo Scientific, USA). Pharmacokinetic parameters were calculated using DAS 2.0 software.
Chromatographic conditions: An Accucore aQ UHPLC column (150 mm × 2.1 mm × 2.5 μm) was used. The column temperature was maintained at 40 ± 1 °C, and the sample tray was kept at 15 ± 0.5 °C. The mobile phase consisted of acetonitrile (A) and water with 0.1% formic acid (B). The elution gradient was as follows: 0–5 min, 95% B. The injection volume was 1 μL, and the flow rate was set to 0.3 mL·min^−1.
Mass spectrometry conditions: Electrospray ionization (ESI) was used with high-purity nitrogen (purity > 99.9%) as the carrier gas. The sheath gas flow rate was 35 Arb, and the auxiliary gas flow rate was 10 Arb. The capillary temperature was set to 320 °C, with the ion lens (S-lens RF level) voltage frequency at 60. The spray voltage was 3.0 kV (positive mode), and full MS positive switching scanning mode was employed, with a scanning range of 150–800.

Compound CCCSc1ccc2nc(NC(=O)OC)[nH]c2c1 [ABZ, albendazole] has a half-life (in vivo, n = 6) of 2 ± 0.38 h, an AUC(0-inf) (plasma, n = 6) of 220 ± 25.3 ng·h/mL and an AUC(0-t) (plasma, n = 6) of 216 ± 27.6 ng·h/mL. For the same compound, the Cmax (plasma, n = 6) was 34.1 ± 5.19 ng/mL, the Tmax (plasma, n = 6) was 2 ± 0.38 h and the MRT last (plasma, n = 6, read-out: MRT0–t) was 6.16 ± 0.36 h. For the same compound, the MRT inf (plasma, n = 6, read-out: MRT0–∞) was 6.55 ± 0.37 h.
